The structures appear in SMILES notation.

Here are results for 2 compounds from patent US20240174624A1, “CHIRAL N-(1,3,4-OXADIAZOLE-2-YL)PHENYL CARBOXYLIC ACID AMIDES AND THEIR USE AS HERBICIDES” (Bayer Aktiengesellschaft, priority 2021, published 2024).

The subject of assay [1] is TRZAS. Kind of assay: Pre-emergence damage to crop plants. The note with it: comparative experiment. Format: in vivo, Triticum aestiva. From the text:
(§1) Seeds of monocotyledonous and dicotyledonous weed plants and crop plants are laid out in sandy loam soil in wood-fibre pots and covered with soil. The compounds of the invention, formulated in the form of wettable powders (WP) or as emulsion concentrates (EC), are then applied to the surface of the covering soil in the form of an aqueous suspension or emulsion at a water application rate equivalent to 600 to 800 l/ha, with addition of 0.2% wetting agent. After the treatment, the pots are placed in a greenhouse and kept under good growth conditions for the trial plants. The damage to the test plants is scored visually after a test period of 3 weeks by comparison with untreated controls (herbicidal activity in percent (%): 100% activity=the plants have died, 0% activity=like control plants). […] The tables below illustrate, in an illustrative manner, the post-emergence herbicidal action of the compounds of the invention, the herbicidal activity being stated in percent. In the experiments that follow, the herbicidal action of the compounds of the invention and that of the corresponding known racemic compounds closest from WO2012126932 and WO2018202535 were compared under the above-specified conditions by the pre-emergence and post-emergence method. The example numbers given in the tables relate to the compounds disclosed in the respective documents.

In assay [2] the test system is ORYZA. Briefly: Post-emergence damage to crop plants. Conditions: 5 g a.i./ha, comparative experiment. Format: in vivo, Oryza sativa. The method, then: (§2) Seeds of monocotyledonous and dicotyledonous weed and crop plants are laid out in sandy loam soil in wood-fibre pots, covered with soil and cultivated in a greenhouse under good growth conditions. 2 to 3 weeks after sowing, the test plants are treated at the one-leaf stage. The compounds of the invention, formulated in the form of wettable powders (WP) or as emulsion concentrates (EC), are then sprayed onto the green parts of the plants in the form of an aqueous suspension or emulsion at a water application rate equating to 600 to 800 l/ha, with addition of 0.2% wetting agent. After the test plants have been left to stand in the greenhouse under optimal growth conditions for about 3 weeks, the action of the preparations is assessed visually in comparison to untreated controls (herbicidal action in percent (%): 100% activity=the plants have died, 0% activity=like control plants). […] The tables below illustrate, in an illustrative manner, the post-emergence herbicidal action of the compounds of the invention, the herbicidal activity being stated in percent. In the experiments that follow, the herbicidal action of the compounds of the invention and that of the corresponding known racemic compounds closest from WO2012126932 and WO2018202535 were compared under the above-specified conditions by the pre-emergence and post-emergence method. The example numbers given in the tables relate to the compounds disclosed in the respective documents.

The subject of assay [3] is ECHCG. Briefly: Post-emergence herbicidal action. The note with it: for Post-emergence action against ECHCG: assessed after about 3 weeks. Format: in vivo, Echinochloa crus-galli. The method, then:
as §2

Assay [4] has as its system GLXMA. Briefly: Pre-emergence damage to crop plants. It counts as in vivo, Glycine max. Conditions: 80 g a.i./ha, comparative experiment.
Text: as §1

Assay [5] has as its system MATIN. Kind of assay: Post-emergence herbicidal action. Conditions: 20 g/ha, assessed after about 3 weeks. It counts as in vivo, Matricaria inodora. The method, then:
as §2, with “percent.” for “percent. In the experiments that follow, the herbicidal action of the compounds of the invention and that of the corresponding known racemic compounds closest from WO2012126932 and WO2018202535 were compared under the above-specified conditions by the pre-emergence and post-emergence method. The example numbers given in the tables relate to the compounds disclosed in the respective documents.”

The subject of assay [6] is ECHCG. Briefly: Pre-emergence herbicidal action. Conditions: scored after 3 weeks. Format: in vivo, Echinochloa crus-galli.
Text: as §1, with “percent.” for “percent. In the experiments that follow, the herbicidal action of the compounds of the invention and that of the corresponding known racemic compounds closest from WO2012126932 and WO2018202535 were compared under the above-specified conditions by the pre-emergence and post-emergence method. The example numbers given in the tables relate to the compounds disclosed in the respective documents.”

For assay [7], the system named is AMARE. Kind of assay: Pre-emergence herbicidal action. It counts as in vivo, Amaranthus retroflexus. The note with it: scored after 3 weeks.
Text: as §1, with “percent.” for “percent. In the experiments that follow, the herbicidal action of the compounds of the invention and that of the corresponding known racemic compounds closest from WO2012126932 and WO2018202535 were compared under the above-specified conditions by the pre-emergence and post-emergence method. The example numbers given in the tables relate to the compounds disclosed in the respective documents.”

Assay [8] deals with DIGSA. Kind of assay: Pre-emergence herbicidal action. It counts as in vivo, Digitaria sanguinalis. The note with it: scored after 3 weeks.
Text: as §1, with “percent.” for “percent. In the experiments that follow, the herbicidal action of the compounds of the invention and that of the corresponding known racemic compounds closest from WO2012126932 and WO2018202535 were compared under the above-specified conditions by the pre-emergence and post-emergence method. The example numbers given in the tables relate to the compounds disclosed in the respective documents.”

Assay [9] deals with ZEAMX. Kind of assay: Pre-emergence damage to crop plants. Conditions: comparative experiment. Format: in vivo, Zea mays.
Text: as §1

Assay [10] relates to STEME. Briefly: Pre-emergence herbicidal action. Format: in vivo, Stellaria media. Conditions: scored after 3 weeks.
Text: as §1

The subject of assay [11] is PHBPU. Kind of assay: Post-emergence herbicidal action. Conditions: assessed after about 3 weeks. Format: in vivo, Pharbitis purpurea. The method, then:
as §2, with “percent.” for “percent. In the experiments that follow, the herbicidal action of the compounds of the invention and that of the corresponding known racemic compounds closest from WO2012126932 and WO2018202535 were compared under the above-specified conditions by the pre-emergence and post-emergence method. The example numbers given in the tables relate to the compounds disclosed in the respective documents.”

For assay [12], the system named is SETVI. Briefly: Post-emergence herbicidal action. Conditions: 20 g/ha, assessed after about 3 weeks. It counts as in vivo, Setaria viridis. The protocol:
as §2

Assay [13] relates to BRSNW. Briefly: Pre-emergence damage to crop plants. Format: in vivo, Brassica napus. Conditions: 20 g a.i./ha, comparative experiment.
Text: as §1

Assay [14] deals with TRZAS. Briefly: Post-emergence damage to crop plants. The note with it: comparative experiment. Format: in vivo, Triticum aestiva. The protocol: as §2
Assay [15] concerns VIOTR. Briefly: Pre-emergence herbicidal action. Format: in vivo, Viola tricolor. Conditions: scored after 3 weeks.
Text: as §1, with “percent.” for “percent. In the experiments that follow, the herbicidal action of the compounds of the invention and that of the corresponding known racemic compounds closest from WO2012126932 and WO2018202535 were compared under the above-specified conditions by the pre-emergence and post-emergence method. The example numbers given in the tables relate to the compounds disclosed in the respective documents.”

In assay [16] the test system is AMARE. Kind of assay: Post-emergence herbicidal action. It counts as in vivo, Amaranthus retroflexus. Conditions: assessed after about 3 weeks. The protocol: as §2, with “percent.” for “percent. In the experiments that follow, the herbicidal action of the compounds of the invention and that of the corresponding known racemic compounds closest from WO2012126932 and WO2018202535 were compared under the above-specified conditions by the pre-emergence and post-emergence method. The example numbers given in the tables relate to the compounds disclosed in the respective documents.”

The test system of assay [17] is STEME. Kind of assay: Post-emergence herbicidal action. The note with it: 20 g/ha, assessed after about 3 weeks. It counts as in vivo, Stellaria media. The protocol: as §2
Assay [18] has as its system MATIN. Kind of assay: Pre-emergence herbicidal action. Format: in vivo, Matricaria inodora. The note with it: 80 g/ha, scored after 3 weeks.
Text: as §1

Assay [19] concerns VIOTR. Briefly: Post-emergence herbicidal action. Format: in vivo, Viola tricolor. The note with it: 20 g/ha, assessed after about 3 weeks. The protocol:
as §2

Assay [20] concerns SETVI. Kind of assay: Pre-emergence herbicidal action. Format: in vivo, Setaria viridis. The note with it: 80 g/ha, scored after 3 weeks.
Text: as §1

Assay [21] concerns DIGSA. Briefly: Post-emergence herbicidal action. Format: in vivo, Digitaria sanguinalis. Conditions: assessed after about 3 weeks. The protocol:
as §2

Take `C[S+]([O-])c1c(C(F)F)ccc(C(=O)Nc2nnco2)c1Cl` (racemic) [Racemate, known from WO2018202535, 2-chloro-N-(1,3,4-oxadiazol-2-yl)-3-[(rac)-methylsulfinyl]-4-(difluoromethyl)benzamide, reference compound]: the “Damage to TRZAS” value was found to be 70% in [1] (20 g a.i./ha) and 100% in [1] (80 g a.i./ha). Further, the “Damage to ORYZA” value in assay [2] came to 60%. The “Herbicidal action against ECHCG” value in assay [3] (5 g a.i./ha, comparative experiment) was 70%. Also, in assay [4], the “Damage to GLXMA” value amounted to 80%.
For the compound `Cc1c(C(=O)Nc2nnco2)ccc(C(F)(F)F)c1[S+](C)[O-]` (stereo in doubt) [Example I-3, 2-methyl-N-(1,3,4-oxadiazol-2-yl)-3-[(S)-methylsulfinyl]-4-(trifluoromethyl)benzamide], the “Post-emergence action against MATIN” value in [5] was determined as 80%. Further, the “Damage to TRZAS” value in [1] (20 g a.i./ha) worked out at 0%; in assay [1] (80 g a.i./ha), 30%; in assay [14] (5 g a.i./ha) it was 20%; in [14] (20 g a.i./ha) it was 30%. Besides, the “Pre-emergence action against ECHCG” value turned out to be 90% in assay [6] (20 g/ha) and 100% in assay [6] (80 g/ha). The “Pre-emergence action against AMARE” value in assay [7] (20 g/ha) and in [7] (80 g/ha) was 100% in each case. The “Pre-emergence action against DIGSA” value in [8] (20 g/ha) and in [8] (80 g/ha) was 100% throughout. Also, the “Damage to ZEAMX” value in assay [9] (20 g a.i./ha) and in [9] (80 g a.i./ha) was 0% throughout. Moreover, the “Pre-emergence action against STEME” value in assay [10] (20 g/ha) is listed as 80%; in assay [10] (80 g/ha), 100%. Moreover, the “Post-emergence action against PHBPU” value in assay [11] (5 g/ha) and in assay [11] (20 g/ha) was 80% in each case. In assay [2], the “Damage to ORYZA” value is recorded as 30%. The figures for the “Post-emergence action against ECHCG” value in assay [3] (5 g/ha) and in [3] (20 g/ha) were 80% and 90%, respectively. Moreover, the “Post-emergence action against SETVI” value in [12] was found to be 90%. Also, the “Damage to GLXMA” value in assay [4] was determined as 50%. The “Damage to BRSNW” value in assay [13] is listed as 70%. The “Pre-emergence action against VIOTR” value worked out at 90% in assay [15] (20 g/ha) and 100% in assay [15] (80 g/ha). Moreover, the “Post-emergence action against AMARE” value in [16] (5 g/ha) and in assay [16] (20 g/ha) was 90% in each case. Further, the “Post-emergence action against STEME” value in [17] was 80%. The “Pre-emergence action against MATIN” value in assay [18] amounted to 90%. In addition, the “Post-emergence action against VIOTR” value in assay [19] is reported as 90%. For the same compound, the “Pre-emergence action against SETVI” value in assay [20] amounted to 90%. Besides, the “Post-emergence action against DIGSA” value in assay [21] (5 g/ha) and in assay [21] (20 g/ha) was 90% throughout.
